The text below walks through data of US11096906B2, “Pharmaceutical composition for preventing or treating Alzheimer's disease” (SFCBIO. CO., LTD., priority 2015, dated 2021).

Common to all, as to format: cell-based
One data set concerns sAPPβ protein. Description: Amount of sAPPβ protein released from APPwt-CHO cells, by western blot. The settings on record: for reduction of the amount of sAPPβ protein as compared to the control group: APPwt-CHO cells. The protocol:
(§1) In order to evaluate the ability of suppressing β-amyloid formation of Compounds 1-3, APPwt-CHO cells obtained by overexpressing APP in CHO cells were used and the amount of the sAPPβ protein cleaved by β-secretase and released out of the cells was measured by western blot. When the APP precursor protein is cleaved first by β-secretase, sAPPβ is released out of the cell. The protein remaining attached to the membrane is cleaved again by γ-secretase to produce β-amyloid. Accordingly, the amount of β-secretase and sAPPβ is proportional to the amount of the produced β-amyloid. Therefore, the amount of the two proteins was measured by western blot.
On the technique in general: Immunoblotting shows a protein as a band on a membrane.

The test system of a further data set is APP*t-CHO cells. Description: MTT-based cytotoxicity assay. The protocol: The cytotoxicity of Compounds 1-3 separated and identified in Examples 1-5 was investigated by MTT-based cytotoxicity assay. APP*t-CHO cells treated with Compounds 1-3 were cultured for 24 hours. After adding a 5 mg/mL MTT solution, the cells were cultured for 4 hours. After removing the culture medium and lysing the cells for 30 minutes by adding DMSO, absorbance was measured at 540 nm using the Emax precision microplate reader (Molecular Devices, CA, USA).
A general note: Tetrazolium dyes change colour on reduction, which living cells bring about.

The test system of another data set is β-secretase. Put plainly: Amount of β-secretase protein in APPwt-CHO cells, by western blot. The note with it: for reduction of the amount of β-secretase protein as compared to the control group: APPwt-CHO cells. As for the experimental part: as §1
Where [1] appears, read: 100 μg/mL, cells cultured 24 hours, MTT.

In the case of `CCCC(=O)c1c(O)cc(O)c(C)c1O` [Compound 3, 2-butyryl-4-methylphloroglucinol], the “reduction of the amount of sAPPβ protein as compared to the control group” value (shortened to “reduction of the amount of sAPPβ protein”) in the data set on sAPPβ protein (10 μg/mL) is recorded as “about 40%”; in the data set with sAPPβ protein (20 μg/mL), “about 80%”. The “reduction of the amount of sAPPβ (in words)” value in the data set with sAPPβ protein (20 μg/mL) is reported as “almost perfectly”. Besides, the cytotoxicity entry in the data set on APP*t-CHO cells (20 μg/mL) is reported as “no toxicity was observed”; in the data set on APP*t-CHO cells (setting [1]), “showed toxicity”. For the same compound, the “concentration at which toxicity was shown” value in the data set on APP*t-CHO cells (cells cultured 24 hours, MTT) was not below 30 µg/mL. In addition, in the data set on β-secretase, the “decrease of the amount of β-secretase (in words)” value is recorded as “effectively decreased”. In addition, the “reduction of the amount of β-secretase protein as compared to the control group” value with β-secretase (10 μg/mL) is recorded as “about 20%”; in the data set on β-secretase (20 μg/mL) it was “about 30%”.

Turning to `CCCC(=O)c1c(O)cc(O)cc1O` [Compound 1, butyrylphloroglucinol], the “reduction of the amount of sAPPβ protein” value is “about 20%” in the data set with sAPPβ protein (10 μg/mL) and “about 70%” in the data set with sAPPβ protein (20 μg/mL). Also, in the data set with APP*t-CHO cells (setting [1]), the cytotoxicity entry is “no toxicity”. Further, the “reduction of the amount of β-secretase protein as compared to the control group” value is given as “about 10%” in the data set on β-secretase (10 μg/mL) and “about 30%” in the data set with β-secretase (20 μg/mL).

Consider `CCC(=O)c1c(O)cc(O)c(C)c1O` [Compound 2, 2-propionyl-4-methylphloroglucinol], for which the “reduction of the amount of sAPPβ protein” value is “about 40%” with sAPPβ protein (20 μg/mL) and “about 80%” in the data set on sAPPβ protein (100 μg/mL). The cytotoxicity result with APP*t-CHO cells (setting [1]) is given as “no toxicity”. Also, the entries for the “reduction of the amount of β-secretase protein as compared to the control group” value in the data set on β-secretase (20 μg/mL) and with β-secretase (100 μg/mL) were “about 40%” and “about 60%”, respectively.
